Where a name gives a salt, the structure may show the parent alone.

Experimental findings from PMC3914656 (Journal of cancer science & therapy, 2013) are described below.

A short description of series [1]: Stability in perfusion solution. The format is physicochemical. Conditions: Phosphate Buffer Saline pH 7.4 with phenol red, room temperature, 6 hrs, RP-HPLC.
Another series deals with p-gp. The series is described as follows: qRT-PCR gene expression of p-gp in treated Caco-2 cells. The format is cell-based. Conditions: for expression of p-gp (qRT-PCR): Caco-2 cells, 24-hrs treatment, actin as control. Background: In qPCR the cycle at which signal appears reflects the starting amount.
The nature of series [2]: Rat in-situ single-pass colon perfusion, effective permeability coefficient. To be noted: N-Nitroso N-methyl urea induced colon cancer, Figure 3.

As to `CCc1c2c(nc3ccc(OC(=O)N4CCC(N5CCCCC5)CC4)cc13)-c1cc3c(c(=O)n1C2)COC(=O)[C@]3(O)CC` [Irinotecan, Irinotecan Hydrochloride], in series [1], the “stability in perfusion samples” value is listed as “stable”. The “expression of p-gp (qRT-PCR)” value in the series with p-gp is “increased”. Moreover, the “permeability coefficient in cancerous colon in comparison to normal colon” value in series [2] is “decreased”.
In the case of `COc1cc(/C=C/C(=O)CC(=O)/C=C/c2ccc(O)c(OC)c2)ccc1O` [curcumin], the “expression of p-gp (qRT-PCR)” value with p-gp is recorded as “significant inhibition”. For the same compound, in the series on p-gp (qRT-PCR and Western blot, curcumin treated colon cancer cells), the “decrease in the expression of p-glycoprotein (P-gp)” value is on record as “about 15 fold”.
Take `CC(C)NCC(O)COc1cccc2ccccc12` (stereo not drawn) [propranolol]: in series [1], the “stability in perfusion samples” value is given as “stable”.
